# Results reported in ChEMBL document CHEMBL4811298, “Discovery of novel class of histone deacetylase inhibitors as potential anticancer agents” (Bioorg Med Chem, 2021).
# Calls of active or inactive are those of the source. No cut-off for these calls is given here.
# Experiments:
# MCF7 [1] = experiment: Upregulation of HDAC8 gene expression in human MCF7 cells at 3 uM incubated for 24 hrs by whole transcriptome analysis; assay type: functional, cell-based
# [2] = target: Histone deacetylase 3/Nuclear receptor corepressor 2 (HDAC3/NCoR2) (Homo sapiens, UniProt O15379); experiment: Inhibition of C-terminal His-tagged human recombinant full length HDAC3 (1 to 428 residues)/N-terminal GST-tagged human recombinant NCOR2 (395 to 489 residues) expressed in baculovirus-infected Sf9 cells assessed as reduction in 7-amino-4-methylcoumarin release using fluorogenic HDAC substrate 3 measured every 5 mins by fluorescence based analysis
# MCF7 [3] = experiment: Induction of cell cycle arrest in human MCF7 cells assessed as accumulation at G2/M phase at 1 uM incubated for 24 hrs by PI staining based flow cytometric analysis; assay type: functional
# MCF7 [4] = experiment: Upregulation of NFkB2 gene expression in human MCF7 cells at 3 uM incubated for 24 hrs by whole transcriptome analysis; assay type: functional, cell-based
# MCF7 [5] = experiment: Upregulation of NFkB1 gene expression in human MCF7 cells at 3 uM incubated for 24 hrs by whole transcriptome analysis; assay type: functional, cell-based
# MCF7 [6] = experiment: Upregulation of RELB gene expression in human MCF7 cells at 3 uM incubated for 24 hrs by whole transcriptome analysis; assay type: functional, cell-based
# MCF7 [7] = experiment: Upregulation of SIRT5 gene expression in human MCF7 cells at 3 uM incubated for 24 hrs by whole transcriptome analysis; assay type: functional, cell-based
# Histone deacetylase 5 [8] = target: T1, Histone deacetylase 5 (Homo sapiens, UniProt Q9UQL6); experiment: Inhibition of N-terminal GST-tagged human recombinant full length HDAC5 expressed in baculovirus-infected Sf9 cells assessed as reduction in 7-amino-4-methylcoumarin release measured every 5 mins by fluorescence based analysis
# MCF7 [9] = experiment: Upregulation of HDAC3 gene expression in human MCF7 cells at 3 uM incubated for 24 hrs by whole transcriptome analysis; assay type: functional, cell-based
# Histone deacetylase 2 = Histone deacetylase 2 (Homo sapiens, UniProt Q92769); assay type: cell-based, Sf9
# MCF7 [10] = experiment: Induction of cell cycle arrest in human MCF7 cells assessed as accumulation at subG1 phase at 1 uM incubated for 24 to 72 hrs by PI staining based flow cytometric analysis; assay type: functional; settings: time 24-72 hrs
# Histone deacetylase 9 = Histone deacetylase 9 (Homo sapiens, UniProt Q9UKV0); experiment: Inhibition of C-terminal His-tagged human HDAC9 (604 to 1066 residues) expressed in baculovirus-infected Sf9 cells assessed as reduction in 7-amino-4-methylcoumarin release measured every 5 mins by fluorescence based analysis
# MCF7 [11] = experiment: Upregulation of SIRT2 gene expression in human MCF7 cells at 3 uM incubated for 24 hrs by whole transcriptome analysis; assay type: functional, cell-based
# MCF7 [12] = experiment: Upregulation of HDAC5 gene expression in human MCF7 cells at 3 uM incubated for 24 hrs by whole transcriptome analysis; assay type: functional, cell-based
# MCF7 [13] = experiment: Upregulation of SIRT1 gene expression in human MCF7 cells at 3 uM incubated for 24 hrs by whole transcriptome analysis; assay type: functional, cell-based
# MCF7 [14] = experiment: Induction of cell cycle arrest in human MCF7 cells assessed as accumulation at G1/S phase at 1 uM incubated for 4 hrs by PI staining based flow cytometric analysis; assay type: functional
# MCF7 [15] = experiment: Upregulation of RELA (p65 ) gene expression in human MCF7 cells at 3 uM incubated for 24 hrs by whole transcriptome analysis; assay type: functional, cell-based
# MCF7 [16] = experiment: Upregulation of HDAC2 gene expression in human MCF7 cells at 3 uM incubated for 24 hrs by whole transcriptome analysis; assay type: functional, cell-based
# MCF7 [17] = experiment: Upregulation of SIRT7 gene expression in human MCF7 cells at 3 uM incubated for 24 hrs by whole transcriptome analysis; assay type: functional, cell-based
# MCF7 [18] = experiment: Upregulation of SIRT6 gene expression in human MCF7 cells at 3 uM incubated for 24 hrs by whole transcriptome analysis; assay type: functional, cell-based
# MCF7 [19] = experiment: Upregulation of c-REL gene expression in human MCF7 cells at 3 uM incubated for 24 hrs by whole transcriptome analysis; assay type: functional, cell-based
# MCF7 [20] = experiment: Upregulation of SIRT3 gene expression in human MCF7 cells at 3 uM incubated for 24 hrs by whole transcriptome analysis; assay type: functional, cell-based
# MCF7 [21] = experiment: Upregulation of HDAC10 gene expression in human MCF7 cells at 3 uM incubated for 24 hrs by whole transcriptome analysis; assay type: functional, cell-based
# MCF7 [22] = experiment: Upregulation of HDAC4 gene expression in human MCF7 cells at 3 uM incubated for 24 hrs by whole transcriptome analysis; assay type: functional, cell-based
# Histone deacetylase 4 = Histone deacetylase 4 (Homo sapiens, UniProt P56524); experiment: Inhibition of N-terminal GST-tagged/C-terminal His-tagged human recombinant HDAC4 (627 to 1084 residues) expressed in baculovirus-infected Sf9 cells assessed as reduction in 7-amino-4-methylcoumarin release measured every 5 mins by fluorescence based analysis
# Histone deacetylase 1 = Histone deacetylase 1 (Homo sapiens, UniProt Q13547); experiment: Inhibition of C-terminal FLAG/His-tagged human recombinant HDAC1 (1 to 482 residues) expressed in baculovirus-infected Sf9 cells assessed as reduction in 7-amino-4-methylcoumarin release using fluorogenic HDAC substrate 3 measured every 5 mins by fluorescence based analysis
# MCF7 [23] = experiment: Upregulation of HDAC7 gene expression in human MCF7 cells at 3 uM incubated for 24 hrs by whole transcriptome analysis; assay type: functional, cell-based
# MCF7 [24] = experiment: Upregulation of HDAC6 gene expression in human MCF7 cells at 3 uM incubated for 24 hrs by whole transcriptome analysis; assay type: functional, cell-based
# MCF7 [25] = experiment: Upregulation of HDAC11 gene expression in human MCF7 cells at 3 uM incubated for 24 hrs by whole transcriptome analysis; assay type: functional, cell-based
# MCF7 [26] = experiment: Upregulation of SIRT4 gene expression in human MCF7 cells at 3 uM incubated for 24 hrs by whole transcriptome analysis; assay type: functional, cell-based
# MCF7 [27] = experiment: Induction of apoptosis in human MCF7 cells assessed as downregulation of c-Myc protein expression at 1 to 3 uM measured after 48 hrs western blot analysis; assay type: functional, cell-based; settings: dose 1-3 µM
# MCF7 [28] = experiment: Induction of apoptosis in human MCF7 cells assessed as increase in caspase 3/7 activity at 1 to 3 uM measured after 48 hrs by ELISA; assay type: functional, cell-based; settings: dose 1-3 µM
# Histone deacetylase 5 [29] = target: T1, Histone deacetylase 5; experiment: Potency index, ratio of vorinostat IC50 to test compound IC50 for Inhibition of N-terminal GST-tagged human recombinant full length HDAC5 expressed in baculovirus-infected Sf9 cells assessed as reduction in 7-amino-4-methylcoumarin release measured every 5 mins by fluorescence based analysis
# Histone deacetylase 7 = target: T2, Histone deacetylase 7 (Homo sapiens, UniProt Q8WUI4); experiment: Inhibition of N-terminal GST-tagged human HDAC7 (518 to end residues) expressed in baculovirus-infected Sf9 cells assessed as reduction in 7-amino-4-methylcoumarin release measured every 5 mins by fluorescence based analysis
# T2 sequence (Q8WUI4 whole entry): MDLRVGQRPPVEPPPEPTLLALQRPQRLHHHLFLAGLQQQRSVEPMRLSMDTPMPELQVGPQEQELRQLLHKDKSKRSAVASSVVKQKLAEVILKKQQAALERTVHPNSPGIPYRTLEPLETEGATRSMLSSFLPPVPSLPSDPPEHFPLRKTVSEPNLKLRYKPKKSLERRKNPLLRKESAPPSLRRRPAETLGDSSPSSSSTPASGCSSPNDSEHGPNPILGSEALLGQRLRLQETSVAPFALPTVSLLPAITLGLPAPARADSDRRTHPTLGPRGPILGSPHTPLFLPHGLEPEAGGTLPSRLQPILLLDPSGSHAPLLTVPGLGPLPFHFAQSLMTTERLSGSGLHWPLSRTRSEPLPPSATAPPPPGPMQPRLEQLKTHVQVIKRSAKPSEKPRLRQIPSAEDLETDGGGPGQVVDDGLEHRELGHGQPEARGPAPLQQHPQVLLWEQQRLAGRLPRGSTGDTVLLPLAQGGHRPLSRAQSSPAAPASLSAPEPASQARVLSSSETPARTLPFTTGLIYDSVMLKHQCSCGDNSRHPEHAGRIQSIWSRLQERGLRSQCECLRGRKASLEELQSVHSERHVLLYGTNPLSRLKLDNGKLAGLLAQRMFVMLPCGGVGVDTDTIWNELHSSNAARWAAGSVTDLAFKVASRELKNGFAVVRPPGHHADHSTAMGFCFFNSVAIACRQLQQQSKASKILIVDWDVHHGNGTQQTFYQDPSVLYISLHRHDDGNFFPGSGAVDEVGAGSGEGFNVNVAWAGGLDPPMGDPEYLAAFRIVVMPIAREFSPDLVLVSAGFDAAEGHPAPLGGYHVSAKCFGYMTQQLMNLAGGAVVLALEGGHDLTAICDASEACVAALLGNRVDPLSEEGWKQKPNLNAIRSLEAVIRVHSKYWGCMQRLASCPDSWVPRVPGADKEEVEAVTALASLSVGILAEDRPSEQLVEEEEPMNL
# MCF7 [30] = experiment: Upregulation of HDAC1 gene expression in human MCF7 cells at 3 uM incubated for 24 hrs by whole transcriptome analysis; assay type: functional, cell-based
# T1 sequence (Q9UQL6 whole entry): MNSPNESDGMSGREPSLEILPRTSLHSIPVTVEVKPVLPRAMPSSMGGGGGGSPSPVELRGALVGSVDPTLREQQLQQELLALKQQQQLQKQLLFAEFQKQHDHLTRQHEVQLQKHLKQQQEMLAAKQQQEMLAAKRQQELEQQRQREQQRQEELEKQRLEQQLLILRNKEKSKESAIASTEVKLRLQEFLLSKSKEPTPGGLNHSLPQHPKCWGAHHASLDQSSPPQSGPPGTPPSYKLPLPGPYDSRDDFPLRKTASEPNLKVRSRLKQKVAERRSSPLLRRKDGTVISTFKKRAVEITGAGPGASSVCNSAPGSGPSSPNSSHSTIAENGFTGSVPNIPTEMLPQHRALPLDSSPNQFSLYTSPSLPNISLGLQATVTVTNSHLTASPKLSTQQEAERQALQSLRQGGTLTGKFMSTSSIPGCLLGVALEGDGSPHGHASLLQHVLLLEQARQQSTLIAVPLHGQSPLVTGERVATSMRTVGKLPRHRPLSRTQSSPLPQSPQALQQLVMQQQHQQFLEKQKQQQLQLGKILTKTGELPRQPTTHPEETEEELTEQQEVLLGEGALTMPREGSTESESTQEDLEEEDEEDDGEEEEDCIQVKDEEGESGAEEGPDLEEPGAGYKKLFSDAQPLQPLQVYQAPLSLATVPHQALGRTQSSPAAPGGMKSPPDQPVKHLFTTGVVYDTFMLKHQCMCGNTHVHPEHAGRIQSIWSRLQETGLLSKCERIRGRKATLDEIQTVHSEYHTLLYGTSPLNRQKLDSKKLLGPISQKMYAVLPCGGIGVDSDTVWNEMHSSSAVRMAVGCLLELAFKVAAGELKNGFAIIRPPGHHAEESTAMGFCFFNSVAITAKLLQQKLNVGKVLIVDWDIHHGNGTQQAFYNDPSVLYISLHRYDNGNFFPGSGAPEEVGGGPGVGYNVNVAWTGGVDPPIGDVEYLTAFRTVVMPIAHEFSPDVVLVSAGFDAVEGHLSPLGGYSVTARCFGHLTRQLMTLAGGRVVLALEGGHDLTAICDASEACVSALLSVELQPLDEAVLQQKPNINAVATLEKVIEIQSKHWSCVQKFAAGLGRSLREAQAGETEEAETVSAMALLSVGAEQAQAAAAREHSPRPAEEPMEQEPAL
# Chain of Histone deacetylase 9 (Q9UKV0 whole entry, the tested form may be a part): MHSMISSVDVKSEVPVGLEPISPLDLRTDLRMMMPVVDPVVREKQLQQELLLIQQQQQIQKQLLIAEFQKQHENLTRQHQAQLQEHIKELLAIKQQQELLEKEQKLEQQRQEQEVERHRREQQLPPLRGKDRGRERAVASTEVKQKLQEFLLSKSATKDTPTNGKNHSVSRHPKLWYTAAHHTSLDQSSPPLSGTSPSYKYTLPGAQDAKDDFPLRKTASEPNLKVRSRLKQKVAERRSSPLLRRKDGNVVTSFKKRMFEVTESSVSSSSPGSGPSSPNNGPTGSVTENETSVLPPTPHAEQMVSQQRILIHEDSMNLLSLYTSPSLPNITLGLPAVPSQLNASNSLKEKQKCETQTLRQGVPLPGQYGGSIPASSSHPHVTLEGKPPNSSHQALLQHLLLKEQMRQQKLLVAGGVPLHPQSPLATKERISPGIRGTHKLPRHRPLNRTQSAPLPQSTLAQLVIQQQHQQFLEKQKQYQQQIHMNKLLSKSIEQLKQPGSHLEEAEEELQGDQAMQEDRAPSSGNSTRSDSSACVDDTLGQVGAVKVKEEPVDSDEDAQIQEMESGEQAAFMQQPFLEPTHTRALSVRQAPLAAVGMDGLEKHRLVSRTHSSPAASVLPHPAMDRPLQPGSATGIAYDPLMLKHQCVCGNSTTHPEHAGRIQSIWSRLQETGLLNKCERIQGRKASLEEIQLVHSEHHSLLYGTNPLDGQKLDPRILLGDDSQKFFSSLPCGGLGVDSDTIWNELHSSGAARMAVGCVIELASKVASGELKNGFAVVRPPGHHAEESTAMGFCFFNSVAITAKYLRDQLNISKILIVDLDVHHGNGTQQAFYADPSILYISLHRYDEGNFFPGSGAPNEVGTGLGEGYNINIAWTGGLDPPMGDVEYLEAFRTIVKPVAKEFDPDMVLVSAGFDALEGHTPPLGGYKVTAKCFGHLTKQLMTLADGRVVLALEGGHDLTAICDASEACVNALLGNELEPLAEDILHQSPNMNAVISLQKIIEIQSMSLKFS
# Chain of Histone deacetylase 4 (P56524 whole entry, the tested form may be a part): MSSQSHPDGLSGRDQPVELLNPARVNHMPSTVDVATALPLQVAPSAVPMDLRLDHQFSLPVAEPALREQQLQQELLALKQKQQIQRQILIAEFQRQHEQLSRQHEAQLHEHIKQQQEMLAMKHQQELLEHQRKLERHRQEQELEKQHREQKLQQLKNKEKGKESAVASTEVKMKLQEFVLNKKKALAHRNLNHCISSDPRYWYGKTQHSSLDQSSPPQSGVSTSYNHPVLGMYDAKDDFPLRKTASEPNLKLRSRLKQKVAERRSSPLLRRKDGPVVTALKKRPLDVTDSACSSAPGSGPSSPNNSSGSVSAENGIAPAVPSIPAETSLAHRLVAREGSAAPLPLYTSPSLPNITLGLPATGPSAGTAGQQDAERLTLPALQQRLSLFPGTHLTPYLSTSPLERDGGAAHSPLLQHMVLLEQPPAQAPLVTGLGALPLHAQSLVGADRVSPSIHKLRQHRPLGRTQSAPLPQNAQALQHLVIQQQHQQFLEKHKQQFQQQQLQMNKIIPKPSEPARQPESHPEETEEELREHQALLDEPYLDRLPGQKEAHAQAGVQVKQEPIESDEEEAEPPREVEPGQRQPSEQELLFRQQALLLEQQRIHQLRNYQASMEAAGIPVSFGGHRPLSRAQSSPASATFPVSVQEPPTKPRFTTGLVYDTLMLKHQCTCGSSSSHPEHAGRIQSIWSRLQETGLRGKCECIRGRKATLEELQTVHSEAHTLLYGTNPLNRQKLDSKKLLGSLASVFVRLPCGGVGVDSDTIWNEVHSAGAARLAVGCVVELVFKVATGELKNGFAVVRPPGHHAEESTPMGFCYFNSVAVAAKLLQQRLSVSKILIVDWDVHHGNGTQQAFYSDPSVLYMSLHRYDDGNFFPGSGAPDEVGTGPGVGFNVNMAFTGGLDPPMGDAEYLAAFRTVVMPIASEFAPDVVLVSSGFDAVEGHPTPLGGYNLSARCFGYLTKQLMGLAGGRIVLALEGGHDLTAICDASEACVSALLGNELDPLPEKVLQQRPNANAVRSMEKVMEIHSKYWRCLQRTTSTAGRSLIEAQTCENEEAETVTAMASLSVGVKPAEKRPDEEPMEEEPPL
# Chain of Histone deacetylase 1 (Q13547 whole entry, the tested form may be a part): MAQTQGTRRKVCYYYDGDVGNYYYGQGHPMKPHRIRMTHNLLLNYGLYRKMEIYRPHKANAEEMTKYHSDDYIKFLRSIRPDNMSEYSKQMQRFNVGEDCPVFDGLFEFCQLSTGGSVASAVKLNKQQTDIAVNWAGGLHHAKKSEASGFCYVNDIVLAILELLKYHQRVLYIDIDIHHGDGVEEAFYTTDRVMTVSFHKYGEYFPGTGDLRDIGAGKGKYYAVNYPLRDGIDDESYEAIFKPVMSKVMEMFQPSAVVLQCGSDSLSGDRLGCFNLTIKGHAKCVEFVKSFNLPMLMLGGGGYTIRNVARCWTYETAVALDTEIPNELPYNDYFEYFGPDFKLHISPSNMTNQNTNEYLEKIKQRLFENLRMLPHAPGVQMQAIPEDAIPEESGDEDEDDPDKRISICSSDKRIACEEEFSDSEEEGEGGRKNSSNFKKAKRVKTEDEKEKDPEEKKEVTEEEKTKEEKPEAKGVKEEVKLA
# Chain of Histone deacetylase 2 (Q92769 whole entry): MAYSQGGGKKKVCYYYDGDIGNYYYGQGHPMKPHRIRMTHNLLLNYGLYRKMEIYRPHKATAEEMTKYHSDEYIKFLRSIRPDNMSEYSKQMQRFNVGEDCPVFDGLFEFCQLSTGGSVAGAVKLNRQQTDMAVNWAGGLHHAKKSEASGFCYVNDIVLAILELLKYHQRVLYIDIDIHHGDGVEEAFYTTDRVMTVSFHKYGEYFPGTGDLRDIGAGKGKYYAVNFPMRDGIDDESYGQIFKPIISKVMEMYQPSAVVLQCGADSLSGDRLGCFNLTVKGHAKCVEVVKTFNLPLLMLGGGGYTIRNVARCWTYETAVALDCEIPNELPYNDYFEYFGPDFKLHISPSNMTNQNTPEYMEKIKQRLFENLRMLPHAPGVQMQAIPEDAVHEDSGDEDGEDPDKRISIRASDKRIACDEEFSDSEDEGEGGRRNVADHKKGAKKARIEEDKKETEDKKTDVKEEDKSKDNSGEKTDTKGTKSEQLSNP
compound,measurement,setting,value
CC(C)(C)Nc1c(-c2cccc(-c3nc4cc(-c5noc(C(F)(F)F)n5)ccc4[nH]3)c2)nc2cnccn12,Activity,MCF7 [1],Active
same,IC50,[2],> 10 µM
same,Activity,MCF7 [3],Active
same,Activity,MCF7 [4],Active
same,Activity,MCF7 [5],Active
same,Activity,MCF7 [6],Active
same,Activity,MCF7 [7],Active
same,IC50,Histone deacetylase 5 [8],0.307 µM
same,Activity,MCF7 [9],Active
same,IC50,Histone deacetylase 2,> 10 µM
same,Activity,MCF7 [10],Active
same,IC50,Histone deacetylase 9,> 10 µM
same,Activity,MCF7 [11],Active
same,Activity,MCF7 [12],Active
same,Activity,MCF7 [13],Active
same,Activity,MCF7 [14],Active
same,Activity,MCF7 [15],Active
same,Activity,MCF7 [16],Active
same,Activity,MCF7 [17],Active
same,Activity,MCF7 [18],Active
same,Activity,MCF7 [19],Active
same,Activity,MCF7 [20],Active
same,Activity,MCF7 [21],Active
same,Activity,MCF7 [22],Active
same,IC50,Histone deacetylase 4,8 µM
same,IC50,Histone deacetylase 1,> 10 µM
same,Activity,MCF7 [23],Active
same,Activity,MCF7 [24],Active
same,Activity,MCF7 [25],Active
same,Activity,MCF7 [26],Active
same,Activity,MCF7 [27],Active
same,Activity,MCF7 [28],Active
same,Ratio IC50,Histone deacetylase 5 [29],> 33
same,IC50,Histone deacetylase 7,> 10 µM
same,Activity,MCF7 [30],Active
